Test results: PubChem BioAssay (NCI)
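Briefly, cells in 96-well plates were exposed to five compound concentrations for 48 h, and endpoints were estimated by linear interpolation. At the GI50, growth is halved. The concentration for full growth arrest is given as TGI.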

Tests used:
Experiment in all cases: NCI-60 cell line screen, 48 h
SNB-75 CNS = test system: SNB-75 CNS
SF-539 CNS = test system: SF-539 CNS
EKVX NSCLC = test system: EKVX NSCLC
ACHN renal = test system: ACHN renal
IGROV1 ovarian = test system: IGROV1 ovarian
OVCAR-8 ovarian = test system: OVCAR-8 ovarian
UO-31 renal = test system: UO-31 renal
SK-MEL-5 melanoma = test system: SK-MEL-5 melanoma
MALME-3M melanoma = test system: MALME-3M melanoma
HOP-62 NSCLC = test system: HOP-62 NSCLC

SMILES | TGI (SNB-75 CNS) [µM] | TGI (SF-539 CNS) [µM] | TGI (EKVX NSCLC) [µM] | TGI (ACHN renal) [µM] | TGI (IGROV1 ovarian) [µM] | TGI (OVCAR-8 ovarian) [µM] | TGI (UO-31 renal) [µM] | TGI (SK-MEL-5 melanoma) [µM] | TGI (MALME-3M melanoma) [µM] | TGI (HOP-62 NSCLC) [µM] | GI50 (HOP-62 NSCLC) [µM] | GI50 (SNB-75 CNS) [µM] | GI50 (SF-539 CNS) [µM] | GI50 (EKVX NSCLC) [µM] | GI50 (ACHN renal) [µM] | GI50 (IGROV1 ovarian) [µM] | GI50 (OVCAR-8 ovarian) [µM] | GI50 (UO-31 renal) [µM] | GI50 (SK-MEL-5 melanoma) [µM] | GI50 (MALME-3M melanoma) [µM]
O=C(O)C1=NNC(C(=O)O)=NN1 | > 100 | > 100 | > 100 | > 100 | > 100 | > 100 | > 100 | > 100 | > 100 |  |  |  |  |  |  |  |  |  |  | 
CC(CO)(CO)Nc1ncnc2ccccc12 | > 100 |  | > 100 | > 100 | > 100 | > 100 | > 100 | > 100 | > 100 | > 100 |  |  |  |  |  |  |  |  |  | 
COc1cc(C)c2c(=O)c3c(oc2c1)C(=O)c1c(O)c(OC)cc(O)c1C3=O | 3.84 | 4.19 | 3.25 |  | 4.29 | 0.551 | 3.62 | 2.33 | 3.83 | 3.98 |  |  |  |  |  |  |  |  |  | 
c1ccc2sc(SCN(C3CCCCC3)C3CCCCC3)nc2c1 |  |  | > 100 | > 100 | > 100 | > 100 | > 100 | > 100 | > 100 | > 100 |  |  |  |  |  |  |  |  |  | 
COc1cc2c(cc1Oc1ccc(OC)c3c1CC1c4c(cc(OC)c(OC)c4-3)CCN1C)CC1c3c(cc(OC)c(OC)c3-2)CCN1C (configuration not stated) | 10.1 | 3.39 | 10.8 |  | 18.7 | 16.3 | 17.7 | 2.92 | 3.38 | 32.5 |  |  |  |  |  |  |  |  |  | 
O=c1cc(O)c2ccccc2o1 | > 100 | > 100 | > 100 | > 100 | > 100 | > 100 | > 100 | > 100 | > 100 | > 100 |  |  |  |  |  |  |  |  |  | 
Fc1ccc(-c2nnc3sc(COc4ccccc4Cl)nn23)cc1Cl | > 100 | > 100 | > 100 | > 100 | 62.8 | > 100 | > 100 | 69.1 | > 100 | > 100 | 49.5 | 47.3 | 41.4 | 39.2 | 32.7 | 17.7 | 37.8 | 32.7 | 23.4 | 70.9
COc1c(Cl)cc(S(=O)O)cc1Cl | > 100 | > 100 | > 100 | > 100 |  |  | > 100 |  | > 100 | > 100 |  |  |  |  |  |  |  |  |  | 
Cn1c(Sc2ccc(-c3cccnc3)n2C)ccc1-c1cccnc1 | 46.9 | 41.8 | > 56.8 | 44.9 | 31.9 | 41.2 | 33.4 | 30.4 | 23.3 | 36 |  |  |  |  |  |  |  |  |  | 
Nc1nnc(N)n1NC(=O)C(=O)Nc1ccc([N+](=O)[O-])cc1 | > 100 | > 100 | > 100 | > 100 | > 100 | > 100 | > 100 | > 100 | > 100 | > 100 |  |  |  |  |  |  |  |  |  | 
CCOC(=O)NC | > 100 | > 100 | > 100 | > 100 | > 100 |  | > 100 | > 100 | > 100 | > 100 |  |  |  |  |  |  |  |  |  | 
NC(=O)Nc1cc(O)ccc1N=Nc1ccc(S(=O)(=O)Nc2ccccn2)cc1 | > 100 | > 100 | > 100 | > 100 | > 100 | > 100 | > 100 | > 100 | > 100 | > 100 |  |  |  |  |  |  |  |  |  | 
CC1(O)CC23CC1CCC2(C)C12CCCC(C)(C(=O)O1)C2CC3O (configuration not stated) | > 100 | > 100 | > 100 | > 100 | > 100 | > 100 | > 100 | > 100 | > 100 |  |  |  |  |  |  |  |  |  |  | 
Cc1cc(=O)oc2c1cc(OCC(=O)OCCN1CCCCC1)c1occ(C)c12 | > 100 | > 100 | > 100 | > 100 |  | > 100 | > 100 | > 100 | > 100 |  |  |  |  |  |  |  |  |  |  | 
CC(C)=CCC[C@](C)(O[C@@H]1O[C@H](CO)[C@@H](O)[C@H](O)[C@H]1O)[C@H]1CC[C@]2(C)[C@@H]1[C@H](O)C[C@@H]1[C@@]3(C)CC[C@H](O)C(C)(C)[C@@H]3[C@@H](O[C@@H]3O[C@H](CO)[C@@H](O)[C@H](O)[C@H]3O)C[C@]12C | > 100 | > 100 | > 100 | > 100 | > 100 | > 100 | > 100 | > 100 | > 100 | > 100 |  |  |  |  |  |  |  |  |  | 
